Laboratory results taken from article PMC10987949, “Inhibition of HIV-1 release by ADAM metalloproteinase inhibitors” (Frontiers in Microbiology, 2024).
Entries after “also recorded” stand apart in the source; their conditions may differ. Where a SMILES comes first, the peptide text is derived from it. [ ]: non-standard residue; d: D form. The star is where a group is joined. Sta = CC(C)C[C@H](N)[C@@H](O)CC(=O)O; Isovaleryl = CC(C)CC(=O)*; 4Abz = Nc1ccc(C(=O)O)cc1; Cbz = O=C(OCc1ccccc1)*; CH2Cl = ClC*; NHOH = ON*

test system: CD62L shedding; assay: Soluble CD62L ELISA, anti-CD3/PHA stimulated PBMC or CD4 T cells; type: cell-based, human; conditions: 10 μM compound; stimulated cells; ELISA
Method: PBMC from de-identified healthy donors were obtained with informed consent from the Department of Transfusion Medicine, National Institutes of Health under Biological reagent Registry RD-14-IX-12 approved by NIH biological safety board. […] IL-2 was added at a final concentration of 20 U/mL. CD3 antibody okt3 was used at ~0.2 μg/mL final concentration. […] Supernatants were collected and assessed using either the CD62L or TNF-α Duo Set ELISA kit according to manufacturer’s instructions (R&D Systems, Inc.). The viability of cells treated with compounds was assessed by acridine orange / propidiom iodide (AO/PI Logosbio catalog F23001) staining using Luna-FL cell counter following the manufacture’s instruction.^2

Row | Molecule | Shedding inhibition Stimulated
1 | CC(C)C[C@H](CC(=O)NO)C(=O)N[C@H](C(=O)N[C@@H](C)C(=O)NCCN)C(C)(C)C [TAPI-2] | ++ (>50%)
2 | Cc1cc(CCC[C@H](CC(=O)NO)C(=O)N[C@H](C(=O)N[C@H](C)c2ccccc2)C(C)(C)C)ccc1-c1ccccc1 [UK-356618, (2R)-N1-[(1S)-2,2-Dimethyl-1-({[(1R)-1-phenylethyl]amino}carbonyl)propyl]-2-{3-[(3-methyl-4-phenyl)-phenyl]propyl}-(N4-hydroxy)butanediamide] | − (0% inhibition)
3 | CC(C)C[C@H](NC(=O)[C@H]1O[C@@H]1C(=O)O)C(=O)NCCCCN=C(N)N [Compound E64] | − (0% inhibition)
4 | CC(C)C[C@H](CC(=O)NO)C(=O)N[C@@H](Cc1ccc2ccccc2c1)C(=O)N[C@@H](C)C(=O)NCCN [TAPI-1] | ++ (>50%)
5 | CC(C)C[C@H](CC(=O)NO)C(=O)N[C@@H](Cc1ccc2ccccc2c1)C(=O)N[C@@H](C)C(N)=O [TAPI-0] | ++ (>50%)
6 | O=S(=O)(F)Cc1ccccc1 [PMSF] | − (0% inhibition)
7 | NC(=O)CI [Iodoacetamide] | − (0% inhibition)
8 | CC[C@H](C)[C@H](NC(C)=O)C(=O)N[C@@H](CCC(=O)O)C(=O)N[C@H](C(=O)N[C@H](C=O)CC(=O)O)[C@@H](C)O [GrzB II] (Ac-IETD-aldehyde) | − (0% inhibition)
9 | COc1ccc(S(=O)(=O)N(CC(=O)NO)CC(C)C)cc1 [NNGH, N-Isobutyl-N-(4-methoxyphenylsulfonyl)glycyl hydroxamic acid] | − (0% inhibition)
10 | CC[C@H](C)[C@H](NC(C)=O)C(=O)N[C@@H](CCC(=O)O)C(=O)N1CCC[C@H]1C(=O)N[C@H](C=O)CC(=O)O [GrzB IV] (Ac-IEPD-aldehyde) | − (0% inhibition)
11 | NCCc1ccc(S(=O)(=O)F)cc1 [AEBSF] | − (0% inhibition)
12 | Cystatin | − (0% inhibition)
13 | CC(C)(C)OC(=O)N[C@H]1[C@@H]2CNC[C@@H]21 [CP-101537, N-(1a,5a,6a)-3-Azabicyclo[3.1.0]hex-6-yl-carbamic acid 1,1-dimethylethyl ester] | − (0% inhibition)
14 | C[C@H](NC(=O)OCc1ccccc1)C(=O)N[C@@H](C)C(=O)N[C@@H](CC(=O)O)C(=O)CCl [GrzB I] (Cbz-Ala-Ala-Asp-CH2Cl) | − (0% inhibition)
15 | Aprotinin | − (0% inhibition)
16 | O=S(=O)(CC1CS1)c1ccc(Oc2ccccc2)cc1 (stereo not shown) [SB-3CT] | − (0% inhibition)
17 | O=c1oc(Cl)c(Cl)c2ccccc12 [3,4-DCIC, 3,4-Dichloroisocouman] | − (0% inhibition)
18 | CC(C)C[C@@H](NC(=O)[C@@H]1CCCN1C(=O)CNC(=O)c1ccc(N)cc1)C(=O)N[C@@H](C)C(=O)NO [Compound 4-m-GPDLA, 4-aminobenzoyl-Gly-Pro-D-Leu-ala hydroxamic acid] (H-[4Abz]GP[dL]A-{NHOH}) | − (0% inhibition)

same assay, conditions: 100 μM compound; stimulated cells; ELISA

Row | Molecule | Shedding inhibition Stimulated
19 | CCOCOC[C@H](C[C@H](C)C(=O)NO)NC(=O)c1ccc(Oc2ccccc2)cc1 [ONO-4817] | +/− (<20)

same assay, conditions: Homo sapiens; 10 μM compound; stimulated cells; ELISA

Row | Molecule | inhibition at 10 µM
20 | CC(C)ON([C@@H](C(=O)NO)C(C)C)S(=O)(=O)c1ccc(-c2ccccc2)cc1 [ARP 101, (2R)-2-[([1,1′-Biphenyl]-4-ylsulfonyl)(1-methylethoxy)amino]-N-hydroxy-3-methyl-butanamide] | < 20%
21 | CC(C)CC(=O)N[C@H](C(=O)N[C@H](C(=O)N[C@@H](CC(C)C)[C@@H](O)CC(=O)N[C@@H](C)C(=O)N[C@@H](CC(C)C)[C@@H](O)CC(=O)O)C(C)C)C(C)C [Pepstatin A] (Isovaleryl-VV[Sta]A[Sta]-OH) | 0%
22 | CC(C)(NS(=O)(=O)c1ccc(Oc2ccc(F)cc2)cc1)C(=O)NO [CP-471474, 2-[[[4-(4-Fluorophenoxy)phenyl]sulfonyl]amino]-N-hydrox y-2-methylpropanamide] | 0%
23 | C[C@H]1c2cccc(O)c2C(=O)C2=C(O)[C@]3(O)C(=O)C(C(N)=O)=C(O)[C@@H](N(C)C)[C@@H]3[C@@H](O)[C@@H]21 [Doxycycline] | 0%
24 | CC(C)[C@H](NS(=O)(=O)c1ccc(-c2ccc(Br)cc2)cc1)C(=O)O [PD166793, (S)-2-(4′-Bromo-biphenyl-4-sulfonylamino)-3-methyl-butyric acid hydrate] | 0%
25 | CC1(c2ccccc2)NC(=O)NC1=O (stereo not shown) [Compound 5-m-5-p, 5-methyl-5-phenylhydantoin] | 0%
26 | CC(=O)N[C@@H](CC(C)C)C(=O)N[C@@H](CC(C)C)C(=O)N[C@H](C=O)CCCNC(=N)N [Leupeptin] | 0%
27 | CCCC(C)NC(=O)c1ccc(Cl)c(Cl)c1 (stereo not shown) [NSC405020, 3,4-Dichloro-N-(1-methylbutyl)-benzamide] | 0%
28 | N=C(N)c1ccc2cc(OC(=O)c3ccc(N=C(N)N)cc3)ccc2c1 [Nafamostat] | 0%
29 | CC(C)C[C@H](NC(=O)[C@@H](O)[C@H](N)Cc1ccccc1)C(=O)O [Bestatin] | 0%
30 | OB(O)c1ccc2[nH]ccc2c1 [Compound 5-Indolylb, 5-indolylboronic acid] | 0%

same assay, conditions: stimulated PBMC or CD4 T cells, ELISA

Row | Molecule | effect on CD62L shedding / soluble CD62L
31 | TAPI | suppressed CD62L shedding
32 | O=c1oc(Cl)c(Cl)c2ccccc12 [3,4-DCIC, 3,4-Dichloroisocouman] | significantly increased soluble CD62L concentration; also recorded: enhanced CD62L shedding

same assay, conditions: titration of HAART compounds, concentration range tested

Row | Molecule | effect on CD62L shedding from stimulated PBMC
33 | Cc1ccnc2c1NC(=O)c1cccnc1N2C1CC1 [nevirapine] | did not inhibit CD62L shedding
34 | Cc1nnc(C(=O)NC(C)(C)c2nc(C(=O)NCc3ccc(F)cc3)c(O)c(=O)n2C)o1 [raltegravir] | did not inhibit CD62L shedding

test system: HIV-1BAL; assay: HIV-1BAL infection of CD8-depleted PBMC, FACS (intracellular p24, CD4, CD62L); type: cell-based; conditions: HIV-1BAL infected cells
Text: The use of healthy human peripheral blood mononuclear cells (PBMC) is approved by the Department of Transfusion Medicine at the Clinical Center of National Institutes of Health. The use of PBMC from HIV-1 infected individuals for the study was approved under protocol #02-I-0202 by the Institutional Review Board (IRB) of National Institutes of Health with written informed consent from all donors. Peripheral blood mononuclear cells (PBMCs) from anonymous healthy donors were isolated by Ficoll-Paque gradient, and cultured in RPMI 1640 supplemented with 10% FBS, 1%Penicillin/streptomycin, 1% HEPES buffer and 20 U/mL IL-2 (culture media); and stimulated with 0.2 μg/mL anti-CD3 antibody (okt3) for 2 days. CD8^+ T cells were depleted prior to infection using the Stemcell CD8 positive selection kit according to manufacturer’s instructions. CD8-depleted PBMCs were plated at 2×10^6 cells/ml in 48-well plates in 1 mL culture media with various inhibitors for 60 min prior to the addition of ~80 TCID50 HIV-1BAL or HIV-1LAI. Inhibitors were replenished during media change every 3 days. The infections were proceeded with or without inhibitors for 6 days or otherwise specified number of days and then analyzed by FACS staining using fluorescent labeled CD4-BV510, CD62L-APC and CD3-PEC7 antibodies (BD Biosciences). Cells were then washed and permeabilized with CytoFix/CytoPerm (BD Biosciences) solution before intracellular staining for HIV p24 antigen using FITC conjugated anti-p24 antibody clone KC57 (Beckman Coulter, catalog 6604665). All assays were performed with cell viabilities >80%. Replication competent HIV-1 viruses were obtained from the NIH AIDS Reagent Program^4, and expanded by infecting activated CD8-depleted PBMCs, and TCID50 was determined by p24 ELISA.

Row | Molecule | accumulation of infected CD4−/CD62L− T cells (loss of CD62L)
35 | CC(C)C[C@H](CC(=O)NO)C(=O)N[C@@H](Cc1ccc2ccccc2c1)C(=O)N[C@@H](C)C(N)=O [TAPI-0] | did not inhibit the accumulation

same assay, conditions: day 6; 0.5μM compounds

Row | Molecule | p24 staining in HIV-1BAL infection of PBMC
36 | C[C@@H]1CCO[C@H]2Cn3cc(C(=O)NCc4ccc(F)cc4F)c(=O)c(O)c3C(=O)N12 [Doultegravir] | no significant staining

same assay, conditions: day 7 post infection; compounds at 100 μM, GI254023X at 250 μM

Row | Molecule | effect on HIV-1BAL infection (intracellular p24)
37 | CC(C)C[C@H](CC(=O)NO)C(=O)N[C@@H](Cc1ccc2ccccc2c1)C(=O)N[C@@H](C)C(N)=O [TAPI-0] | fail to significantly suppress the viral infections
38 | O=c1oc(Cl)c(Cl)c2ccccc12 [3,4-DCIC, 3,4-Dichloroisocouman] | did not enhance HIV-1 infection

test system: CD62L shedding; assay: Soluble CD62L ELISA, unstimulated PBMC; type: cell-based, human; conditions: 10 μM compound; non-stimulated cells; ELISA
Method: PBMC from de-identified healthy donors were obtained with informed consent from the Department of Transfusion Medicine, National Institutes of Health under Biological reagent Registry RD-14-IX-12 approved by NIH biological safety board. CD8-depleted PBMCs, either stimulated or non-stimulated with 10 μg/mL phytohaemagglutinin (PHA) or anti-CD3 antibody (with or without conjugated beads), were plated at 2×10^6 cells/ml in 48 well plates in RPMI 1640 + 10%FBS (R10) to a final volume of 1 mL in each well. IL-2 was added at a final concentration of 20 U/mL. CD3 antibody okt3 was used at ~0.2 μg/mL final concentration. […] Supernatants were collected and assessed using either the CD62L or TNF-α Duo Set ELISA kit according to manufacturer's instructions (R&D Systems, Inc.). The viability of cells treated with compounds was assessed by acridine orange / propidiom iodide (AO/PI Logosbio catalog F23001) staining using Luna-FL cell counter following the manufacture's instruction.^2 […] Supplemental Figure 1. CD62L shedding from unstimulated PBMC. A) Soluble CD62L in the supernatant of unstimulated PBMC was measured By ELISA (R&D systems, Inc) after 24 hour treatment in the presence of 10 μM of […]), aminopeptidase (AP) protease inhibitors, respectively, or their untreated controls. Statistics were calculated using unpaired parametric student t-test between individual treatment and DMSO control. […] B) Viability of PBMC treated with 10-500 μM of MMP inhibitors for 24hours. […] Untreated DMSO AEBSF 3,4-Dichloroisocouman Granzyme B Inhibitor II Granzyme B Inhibitor IV Aprotinin […] 3 4 CD62L shedding from unstimulated PBMC Soluble CD62L (ng/ml) Inhibitor Class […] GI254023X 10 GI254023X 100 […] GI254023X 1000 GW280264X 10 GW280264X 100 […] GW280264X 1000 Marimastat 10 Marimastat 100 Marimastat 250 […]

Row | Molecule | Shedding inhibition Non-stim.
39 | Cc1cc(CCC[C@H](CC(=O)NO)C(=O)N[C@H](C(=O)N[C@H](C)c2ccccc2)C(C)(C)C)ccc1-c1ccccc1 [UK-356618, (2R)-N1-[(1S)-2,2-Dimethyl-1-({[(1R)-1-phenylethyl]amino}carbonyl)propyl]-2-{3-[(3-methyl-4-phenyl)-phenyl]propyl}-(N4-hydroxy)butanediamide] | − (0% inhibition)

same assay, conditions: 100 μM compound; non-stimulated cells; ELISA

Row | Molecule | Shedding inhibition Non-stim.
40 | CCOCOC[C@H](C[C@H](C)C(=O)NO)NC(=O)c1ccc(Oc2ccccc2)cc1 [ONO-4817] | + (20–50)
